# Measurements: article PMC4481117 (Molecular Pain, 2015)
# Experiments:
# [1] = system: μ- and δ-opioid receptors; design: method as in PMID 8624732; details: cited from earlier work
# I-less form of Mac-1 = assay: Adhesion of HEK293 cells expressing the I-less form of Mac-1; assay type: cell-based, Human; details: peptide immobilized at 10 μM, 30 min at 37 °C
# Protocol: (§1) Fig. 3 Adhesion of Mac-1-expressing cells to Dyn A and Dyn B. a, Mac-1-expressing and wild-type HEK293 cells were labeled with calcein and 5x10^4 cells were added to the wells coated with different concentrations of the Dyn A. After 30 min at 37 °C, nonadherent cells were removed and fluorescence was measured. The data shown are means of triplicate determinations, and error bars represent S.E. The figure is representative of 8 experiments. b , adhesion of HEK293 cells expressing Mac-1, LFA and the I-less form of Mac-1 to Dyn A and Dyn B immobilized at 10 μM was determined as described in A. c, calcein-labeled Mac-1-HEK293 cells were preincubated without or with 10 μg/ml of anti-αM mAb 44a or 1 μg/ml NIF for 15 minutes. For testing the role of glucosaminoglycans in cell adhesion, dynorphin A-coated wells were preincubated with 100 μl of 10 μg/ml of chondroitin sulfate A, chondroitin sulfate B and heparin. […]
# (§2) Adhesion assays were performed essentially as described previously. […] Fluorescence was measured in a CytoFluorII fluorescence plate reader (Perceptive Biosystems, Framingham, MA). […] After aspirating the solution, labeled cells were added and cell adhesion was analyzed as above.
# LFA-1 (αLβ2, CD11a/CD18) = assay: Adhesion of LFA-1-expressing HEK293 cells to immobilized peptide; assay type: cell-based, Human; details: peptide immobilized at 10 μM, 30 min at 37 °C
# Protocol: as §1, §2
# GST = assay: Solid-phase binding of GST (control); details: immobilized Dyn A; % of the αMI-domains; not shown
# Protocol: Microtiter plates were coated with different concentrations of the fibrinogen D100 fragment or Dyn A overnight at 4 °C and post-coated with 3 % BSA for 1 h. The GST-αMI-domains in 20 mM Tris–HCl, pH 7.4, 100 mM NaCl, 1 mM MgCl2, 1 mM CaCl2, 0.05 % Tween 20, and 5 % glycerol were added to the wells and incubated for 1.5 h at 22 °C. After washing, the plates were incubated with an anti-GST mAb at a 1:5000 dilution for 1 h at 22 °C. After washing, goat anti-mouse IgG conjugated to alkaline phosphatase was added for 1 h and the binding of the αMI-domains was detected by reaction with p-nitrophenyl phosphate measuring the absorbance at 405 nm. Background binding to BSA was subtracted.
structure (smiles),measurement,setting,value
CC[C@H](C)[C@H](NC(=O)[C@H](CCCNC(=N)N)NC(=O)[C@H](CCCNC(=N)N)NC(=O)[C@H](CC(C)C)NC(=O)[C@H](Cc1ccccc1)NC(=O)CNC(=O)CNC(=O)[C@@H](N)Cc1ccc(O)cc1)C(=O)N[C@@H](CCCNC(=N)N)C(=O)N1CCC[C@H]1C(=O)N[C@@H](CCCCN)C(=O)N[C@@H](CC(C)C)C(=O)N[C@@H](CCCCN)C(=O)N[C@@H](Cc1c[nH]c2ccccc12)C(=O)N[C@@H](CC(=O)O)C(=O)N[C@@H](CC(N)=O)C(=O)N[C@@H](CCC(N)=O)C(=O)O [Dyn A],μ- and δ-opioid receptor binding,[1],can bind to μ- and δ-opioid receptors
same,Adhesion of HEK293 cells expressing the I-less form of Mac-1,I-less form of Mac-1,7 ± 1%
same,Adhesion of LFA-1-HEK293 cells,"LFA-1 (αLβ2, CD11a/CD18)",13 ± 2%
same,Binding of GST to Dyn A relative to the αMI-domains,GST,less than 5%
